These results are taken from patent US20210387973A1, “SUBSTITUTED HETEROCYCLIC COMPOUNDS AND THEIR USE AS RETINOID-RELATED ORPHAN RECEPTOR (ROR) GAMMA-T INHIBITORS” (Technische Universiteit Eindhoven, priority 2019, published 2021).

The target of assay [1] is T1, His6-RORγt ligand binding domain (Homo sapiens, UniProt P51449).
T1 sequence (P51449 269-508 limits assumed): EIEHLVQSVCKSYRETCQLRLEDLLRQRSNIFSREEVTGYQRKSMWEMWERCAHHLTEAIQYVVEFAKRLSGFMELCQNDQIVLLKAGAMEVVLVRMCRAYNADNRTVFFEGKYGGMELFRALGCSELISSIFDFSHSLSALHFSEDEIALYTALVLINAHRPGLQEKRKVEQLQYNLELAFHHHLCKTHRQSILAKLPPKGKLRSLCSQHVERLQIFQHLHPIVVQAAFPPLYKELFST
Briefly: TR-FRET coactivator recruitment assay. The format is biochemical. The conditions noted are these: for Dependence of coactivator recruitment inhibition on cholesterol: fixed concentrations of orthosteric agonist cholesterol. How it is done: In the present application the IC50 is determined according to a biochemical TR-FRET assay. […] A terbium labelled anti-His antibody (CisBio Bioassays, 61HISTLA) and D2-labelled streptavidin (CisBio Bioassays, 610SADLA) are used at the concentrations recommended by the supplier. Compounds (dissolved in DMSO) are titrated using a 2× dilution series in Corning white low volume, low binding, 384-well plates at a final volume of 10 μL The final DMSO concentration being 2% v/v throughout. […] The data is analyzed with Origin Software. The dose-response curve was fitted represented by:
Where y is the FRET ratio, A1 is the bottom asymptote, A2 is the top asymptote, p is the Hills slope and x is the ligand concentration.
The coactivator recruitment TR-FRET assay was performed in the presence of increasing fixed concentrations of cholesterol, a well characterized orthosteric agonist.
A terbium labelled anti-His antibody (CisBio Bioassays, 61HISTLA) and D2-labelled streptavidin (CisBio Bioassays, 610SADLA) were used at the concentrations recommended by the supplier. Compounds (dissolved in Dimethyl sulfoxide—DMSO) were titrated using a 2× dilution series from a highest final concentration of […] such that the final DMSO concentration was 2% v/v throughout.

In assay [2] the target is T2, His6-RORγt (Homo sapiens, UniProt P51449).
T2 sequence (P51449 1-497 isoform P51449-2): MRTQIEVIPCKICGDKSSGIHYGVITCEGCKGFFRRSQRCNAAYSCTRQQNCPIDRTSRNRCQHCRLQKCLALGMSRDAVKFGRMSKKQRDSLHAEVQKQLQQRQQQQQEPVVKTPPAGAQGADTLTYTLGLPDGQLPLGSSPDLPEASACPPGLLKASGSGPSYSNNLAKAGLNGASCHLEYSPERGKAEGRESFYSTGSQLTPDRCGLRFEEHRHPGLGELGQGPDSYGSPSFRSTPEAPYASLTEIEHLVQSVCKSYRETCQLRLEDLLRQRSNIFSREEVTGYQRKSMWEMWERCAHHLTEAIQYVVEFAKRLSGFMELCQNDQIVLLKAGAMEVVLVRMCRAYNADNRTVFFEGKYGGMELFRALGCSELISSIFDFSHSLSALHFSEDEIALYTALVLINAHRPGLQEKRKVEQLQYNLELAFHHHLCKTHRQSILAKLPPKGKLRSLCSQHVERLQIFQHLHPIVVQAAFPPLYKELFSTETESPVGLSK
Briefly: Allosteric ligand displacement assay (AlexaFluor 647 probe, FRET). The format is binding. From the text:
To provide further evidence for allosteric ligand binding we used an orthogonal assay to directly probe for allosteric ligand binding (as opposed to measuring the indirect effects on coactivator recruitment).

The mark [3] stands for this setting: Table 2, cholesterol concentration of 0 μM, read-out: IC50.

The structures appear in SMILES notation. Like-named read-outs stand apart in the source and are kept apart here. Bounds are passed on as bounds.

As for `O=C(O)c1ccc(NC(=O)c2c(-c3c(Cl)cccc3C(F)(F)F)noc2-c2ccccc2)cc1` [RD032], the half-inhibitory concentration (IC50) in assay [1] (setting [3]) is 53.5 µM.
For `O=C(O)c1ccc(NCc2c(-c3c(Cl)cccc3C(F)(F)F)noc2-c2cccc(O)c2)cc1` [RD369], the half-inhibitory concentration (IC50) in assay [1] (setting [3]) is 6.6 µM.
On to `O=C(O)c1ccc(NCc2c(-c3c(Cl)cccc3C(F)(F)F)noc2-c2ccccc2)cc1` [GV068], for which the IC50 in assay [1] (setting [3]) came to 9.6 µM.
In the case of `O=C(O)c1ccc(NCc2c(-c3c(Cl)cccc3C(F)(F)F)noc2-c2cccs2)cc1` [RD329], in assay [1] (setting [3]), the IC50 stood at 1.8 µM.
Turning to `O=C(O)c1ccc(NC(=O)c2c(-c3c(Cl)cccc3C(F)(F)F)noc2-c2ccccc2)cc1F` [RD082], the half-maximal inhibitory concentration (IC50) in assay [1] (setting [3]) turned out to be 91.1 µM.
Same read-out and setting: as for `O=C(O)c1ccc(S(=O)(=O)Nc2c(-c3c(Cl)cccc3C(F)(F)F)noc2-c2ccccc2)cc1` [GV031], the figure is 62.6 µM; as for `O=C(O)c1ccc(-c2c(-c3c(Cl)cccc3C(F)(F)F)noc2-c2ccccc2)cc1` [GV020], 8.2 µM.
Still for that read-out and setting: under `O=C(O)c1ccc(CNC(=O)c2c(-c3c(Cl)cccc3C(F)(F)F)noc2-c2ccccc2)cc1` [RD065] stands 8.8 µM; under `O=C(O)c1ccc(CNc2c(-c3c(Cl)cccc3C(F)(F)F)noc2-c2ccccc2)cc1` [GV032], 30.9 µM.
As for `O=C(O)c1ccc(NCc2c(-c3c(Cl)cccc3C(F)(F)F)noc2-c2cc[nH]c2)cc1` [Compound 1], the Hill slope in assay [1] (0 μM Cholesterol) is listed as −0.45 ± 0.02; in assay [1] (0.1 μM Cholesterol) it was −0.74 ± 0.03; in assay [1] (1.0 μM Cholesterol) it was −0.86 ± 0.03. The “Dependence of coactivator recruitment inhibition on cholesterol” value in assay [1] was “independent of increasing concentrations of cholesterol”.
With `O=C(O)c1ccc(/N=C/c2c(-c3c(Cl)cccc3C(F)(F)F)noc2-c2cc[nH]c2)cc1` [AS89], the IC50 in assay [1] (setting [3]) is 46.6 µM.
For `C[C@H]1O[C@@H](O[C@H]2[C@@H](O)C[C@H](O[C@H]3[C@@H](O)C[C@H](O[C@H]4CC[C@@]5(C)[C@H](CC[C@@H]6[C@@H]5C[C@@H](O)[C@]5(C)[C@@H](C7=CC(=O)OC7)CC[C@]65O)C4)O[C@@H]3C)O[C@@H]2C)C[C@H](O)[C@@H]1O` [Compound C, reference compound], the 50% inhibitory concentration (IC50) was above 5 µM in assay [2] (displacement of Alexa Fluor 647 probe, read-out: AlexaFluor Probe Competition IC50); above 50 µM in assay [2] (read-out: IC50 for displacement of the Alexa Fluor 647 probe); 0.774 ± 0.0816 µM in assay [1] (0 μM Cholesterol, read-out: IC50); 5.47 ± 0.456 µM in assay [1] (0.1 μM Cholesterol, read-out: IC50); 32.4 ± 1.69 µM in assay [1] (1.0 μM Cholesterol, read-out: IC50); 0.774 ± 0.0816 µM in assay [1] (as listed beside probe competition (0 μM cholesterol values), read-out: Coactivator Recruitment IC50). The Hill slope in assay [1] (0 μM Cholesterol) is given as −0.53 ± 0.03; in assay [1] (0.1 μM Cholesterol), −0.54 ± 0.02; in assay [1] (1.0 μM Cholesterol), −0.87 ± 0.04. Moreover, the “Dependence of coactivator recruitment inhibition on cholesterol” value in assay [1] is recorded as “cholesterol-dependent activity profile”.
Regarding `O=C(O)c1ccc(NCc2c(-c3c(Cl)cccc3C(F)(F)F)noc2-c2ccco2)cc1` [RD149], in assay [1] (setting [3]), the IC50 was 1.1 µM.
As for `O=C(O)c1cccc(NC(=O)c2c(-c3c(Cl)cccc3C(F)(F)F)noc2-c2ccccc2)c1` [RD061], the IC50 in assay [1] (setting [3]) was 73.9 µM.
